Earlier results, collected in PMC9916978, “Enantioselective Human Serum Albumin Binding of Apremilast: Liquid Chromatographic, Fluorescence and Molecular Docking Study” (International Journal of Molecular Sciences, 2023).

Tests used:
Parameters in all cases: method as in earlier work
Settings in all cases: 0.25 to 2.5 μg/mL; cited from earlier work
[1] = test system: rat plasma
[2] = test system: human plasma
[3] = test system: rabbit plasma
[4] = test system: mouse plasma
[5] = test system: monkey plasma

SMILES: CCOc1cc([C@@H](CS(C)(=O)=O)N2C(=O)c3cccc(NC(C)=O)c3C2=O)ccc1OC [APR, apremilast]
- overall mean percent bound [1]: 90.6%
- overall mean percent bound [2]: 68.3%
- overall mean percent bound [3]: 80.9%
- overall mean percent bound [4]: 88.6%
- overall mean percent bound [5]: 84.3%
